The values below come from ChEMBL document CHEMBL4152265, “Phthalocyanine-sulfonamide conjugates: Synthesis and photodynamic inactivation of Gram-negative and Gram-positive bacteria” (Eur J Med Chem, 2018).

Each structure is given as a SMILES string. The source made the active and inactive calls. No cut-off for these calls is given here. Bounds are passed on as bounds.

Series [1] is described as follows: Solubility of PVP encapsulated compound in PBS at 2.5 to 25 umol/L by UV-Vis spectroscopic method. The format is physicochemical. The settings on record: buffer.
Series [2] has as its system Staphylococcus aureus. As to the kind of experiment: Effect on viability of Staphylococcus aureus ATCC 29213 using PVP encapsulated compound at 20 uM after 30 mins in absence of light by […]. The following applies: in vivo, 0.5 h. It is filed as organism-based.
The subject of series [3] is Escherichia coli. As to the kind of experiment: Antibacterial activity against recombinant bioluminescence Escherichia coli harboring pHK724/pHK555 at 20 uM preincubated in dark for 30 mins followed by red light irradiation at 1620 J/cm2 for 180 mins by luminometry. The format is functional, organism-based.
Series [4] deals with Staphylococcus aureus. In words: Antibacterial activity against Staphylococcus aureus ATCC 29213 using PVP encapsulated compound at 20 uM preincubated in dark for 30 mins followed by red light irradiation at 270 J/cm2 for 30 mins by […] relative to control. The format is functional, organism-based.
The test system of series [5] is Escherichia coli. In words: Effect on viability of recombinant bioluminescence Escherichia coli harboring pHK724/pHK555 using PVP encapsulated compound at 20 uM after 30 mins in absence of light by luminometry. It is filed as organism-based. The following applies: in vivo, 0.5 h.
In series [6] the test system is Staphylococcus aureus. As to the kind of experiment: Effect on viability of Staphylococcus aureus ATCC 29213 at 20 uM after 30 mins in absence of light by […]. The format is organism-based. The settings on record: in vivo, 0.5 h.
A short description of series [7]: Induction of singlet oxygen generation in DMF assessed as DPBF decay at 0.5 mmol/L measured after 7 mins of LED irradiation at 9 mW/cm2. The format is functional.
Series [8] in a line: Solubility of compound in PBS/10% DMSO at 2.5 to 25 umol/L by UV-Vis spectroscopic method. The format is physicochemical. The settings on record: buffer.
Series [9] in a line: Induction of singlet oxygen generation in PBS assessed as DPBF decay using PVP encapsulated compound at 0.5 mmol/L measured after 7 mins of LED irradiation at 9 mW/cm2. It is filed as functional.
In series [10] the test system is Escherichia coli. In words: Antibacterial activity against recombinant bioluminescence Escherichia coli harboring pHK724/pHK555 at 20 uM using PVP encapsulated compound preincubated in dark for 30 mins followed by red light irradiation at 1620 J/cm2 for 180 mins by luminometry. It is filed as functional, organism-based.
Series [11] can be described thus: Photostability in PBS at 2 ml measured after 30 mins of red light irradiation at 150 mW/cm2 by UV-Vis spectroscopic method. The format is physicochemical. The settings on record: buffer, 0.5 h.
The subject of series [12] is Escherichia coli. As to the kind of experiment: Effect on viability of recombinant bioluminescence Escherichia coli harboring pHK724/pHK555 at 20 uM after 30 mins in absence of light by luminometry. The format is organism-based. The following applies: in vivo, 0.5 h.
The nature of series [13]: Solubility of compound in DMSO at 2.5 to 25 umol/L by UV-Vis spectroscopic method. The format is physicochemical.
A short description of series [14]: Induction of singlet oxygen generation in PBS/DMSO assessed as DPBF decay at 0.5 mmol/L measured after 7 mins of LED irradiation at 9 mW/cm2. The format is functional.
Series [15] deals with Staphylococcus aureus. As to the kind of experiment: Antibacterial activity against Staphylococcus aureus ATCC 29213 at 20 uM preincubated in dark for 30 mins followed by red light irradiation at 270 J/cm2 for 30 mins by […] relative to control. The format is functional.

As for `CC(C)NS(=O)(=O)c1ccc(Oc2cc3c(cc2Oc2ccc(S(=O)(=O)NC(C)C)cc2)-c2nc-3nc3[nH]c(nc4nc(nc5[nH]c(n2)c2cc(Oc6ccc(S(=O)(=O)NC(C)C)cc6)c(Oc6ccc(S(=O)(=O)NC(C)C)cc6)cc52)-c2cc(Oc5ccc(S(=O)(=O)NC(C)C)cc5)c(Oc5ccc(S(=O)(=O)NC(C)C)cc5)cc2-4)c2cc(Oc4ccc(S(=O)(=O)NC(C)C)cc4)c(Oc4ccc(S(=O)(=O)NC(C)C)cc4)cc32)cc1`, the solubility result in series [1] is given as “Soluble”; in series [8] it was “Insoluble”; in [13] it was “Soluble”. Also, the Activity result with Staphylococcus aureus [2] is “Non-Toxic”; in the series with Escherichia coli [5] it was “Non-Toxic”; in the series with Staphylococcus aureus [6], “Non-Toxic”; in series [7], 96%; in [9], 74%; with Escherichia coli [12], “Non-Toxic”. Further, in series [14], the Activity is 4%. Also, the outcome in the series with Escherichia coli [3] and in the series on Staphylococcus aureus [4] was Active. Moreover, the outcome in the series with Escherichia coli [10] was inactive. Also, in series [11], the Stability entry is given as “Stable”.

Regarding `COc1ccc(NS(=O)(=O)c2ccc(Oc3cc4c(cc3Oc3ccc(S(=O)(=O)Nc5ccc(OC)cc5)cc3)-c3nc-4nc4[nH]c(nc5nc(nc6[nH]c(n3)c3cc(Oc7ccc(S(=O)(=O)Nc8ccc(OC)cc8)cc7)c(Oc7ccc(S(=O)(=O)Nc8ccc(OC)cc8)cc7)cc63)-c3cc(Oc6ccc(S(=O)(=O)Nc7ccc(OC)cc7)cc6)c(Oc6ccc(S(=O)(=O)Nc7ccc(OC)cc7)cc6)cc3-5)c3cc(Oc5ccc(S(=O)(=O)Nc6ccc(OC)cc6)cc5)c(Oc5ccc(S(=O)(=O)Nc6ccc(OC)cc6)cc5)cc43)cc2)cc1`, the figures for the solubility entry in series [1], in [8] and in series [13] were “Soluble”, “Insoluble” and “Soluble”, respectively. Also, the Activity entry in the series with Staphylococcus aureus [2] was “Non-Toxic”; with Escherichia coli [5], “Non-Toxic”; with Staphylococcus aureus [6] it was “Non-Toxic”; in the series on Staphylococcus aureus [15], >3 deltalog10CFU/ml; in [7], 92%; in [9], 59%. Further, the Activity result in the series on Escherichia coli [12] was “Non-Toxic”; in series [14], 4%. The outcome in the series on Escherichia coli [3] and in the series on Staphylococcus aureus [4] was Active. Moreover, the outcome in the series on Escherichia coli [10] was inactive. In addition, in series [11], the Stability entry was “Stable”.

As to `CCN(CC)S(=O)(=O)c1ccc(Oc2cc3c(cc2Oc2ccc(S(=O)(=O)N(CC)CC)cc2)-c2nc-3nc3[nH]c(nc4nc(nc5[nH]c(n2)c2cc(Oc6ccc(S(=O)(=O)N(CC)CC)cc6)c(Oc6ccc(S(=O)(=O)N(CC)CC)cc6)cc52)-c2cc(Oc5ccc(S(=O)(=O)N(CC)CC)cc5)c(Oc5ccc(S(=O)(=O)N(CC)CC)cc5)cc2-4)c2cc(Oc4ccc(S(=O)(=O)N(CC)CC)cc4)c(Oc4ccc(S(=O)(=O)N(CC)CC)cc4)cc32)cc1`, the solubility entry is recorded as “Soluble” in series [1], “Insoluble” in [8] and “Soluble” in series [13]. Moreover, the Activity entry is “Non-Toxic” with Staphylococcus aureus [2]; “Non-Toxic” in the series with Escherichia coli [5]; “Non-Toxic” in the series on Staphylococcus aureus [6]; >3 deltalog10CFU/ml with Staphylococcus aureus [15]; 93% in series [7]; 68% in [9]. Besides, the Activity result in the series with Escherichia coli [12] was “Non-Toxic”; in series [14], 1%. In addition, the outcome with Escherichia coli [3] and in the series on Escherichia coli [10] was inactive. Also, the result with Staphylococcus aureus [4] was Active. For the same molecule, the Stability entry in series [11] was “Stable”.
